# Data as given in patent US20120178667A1, “METHODS FOR TREATING SEPTIC SHOCK” (THE GOVERNMENT OF THE UNITED STATES OF AMERICA, dba THE …, priority 2006, published 2012).
# Legend:
# [1] = tested on: HC-NPC co-cultures; assay: Inflammatory mediators in LPS-stimulated HC-NPC co-cultures; assay type: cell-based; conditions: stimulated with LPS
# [2] = tested on: murine bEND.3 endothelial cell line; assay: LPS-induced MIP-2 and IL-6 production by endothelial cells (ELISA of supernatants); assay type: cell-based; conditions: 15 μg/well or 20 μg/well peptide, 15 min pre-treatment, LPS 12.5 ng/well, 4-hour supernatants
# Method: FIG. 1 is a set of bar graphs showing P13 inhibition of macrophage inflammatory protein (MIP)-2 and interleukin (IL)-6. Murine endothelial cell line bEND.3 (2×10^5 cells/48-well plate) were pre-treated for 15 minutes with P13 or scrambled control peptide at matching peptide concentrations (15 or 20 μg/well) and then with LPS (12.5 ng/well). MIP-2 and IL-6 were quantified by ELISA from 4-hour cell-free supernatants. Cytokine values represent means +/−S.D. from quadruplicate wells/experimental condition.
# Quantification of cytokines from cell supernatants. IL-6 and MIP-2 ELISA kits were used to assay cytokine levels in cell culture supernatants according to the protocols provided by the manufacturer (R&D Systems, Minneapolis, Minn.).
# Because endothelial cells can be activated and even damaged in response to LPS exposure, the effect of treatment with peptide P13 on LPS-induced cytokine responses from the murine bEND.3 endothelial cell line was examined. Treatment of the bEND cells with LPS induced secretion of MIP-2 and IL-6.
# [3] = tested on: TLR-dependent signaling; conditions: in vitro; cited from earlier work
# [4] = tested on: BALB/c mice; assay: LPS-induced serum TNF-α and soluble ICAM-1 in mice (ELISA); assay type: in vivo; conditions: serum 2 hours after LPS
# Method: FIG. 2 is a set of bar graphs showing P13 inhibition of serum inflammatory mediators. BALB/c mice were injected intraperitoneally (i.p.) with 5 mg/kg LPS and 30 minutes later injected i.p. with P13 (15, 50, or 75 μg) or PBS. Two hours after LPS injection, serum was collected and TNF-α and soluble ICAM-1 were quantified by ELISA. Values represent means +/−S.D.
# Serum cytokines and soluble ICAM-1. BALB/c female mice were injected intraperitoneally (i.p.) with 5 mg/kg of LPS and peptide P13 (15, 50, or 75 μg) or PBS was injected i.p. 30 minutes later. Two hours after injection of LPS, serum was collected and TNF-α and soluble ICAM-1 quantified by ELISA (R&D Systems).
# To determine the effect of peptide treatment on the induction of serum inflammatory mediators, mice were injected with a sub-lethal high dose of LPS and 30 minutes later with P13 or phosphate buffered saline (PBS). Serum was collected 2 hours after treatment with LPS. TNF-α and soluble ICAM-1 were quantified by ELISA. […] The effect of delayed peptide P13 treatment at different doses of peptide on LPS-induced production of soluble ICAM-1 was examined.
# [5] = tested on: animals treated with low dose LPS plus D-GaLN; assay: Survival after low dose LPS plus D-GaLN; assay type: in vivo
# [6] = tested on: BALB/c mice; assay: LPS-induced sepsis model, lethality after high dose LPS; assay type: in vivo; conditions: LPS 70 mg/kg i.p.; peptide 75 μg s.c. at 2 and 6 hours after LPS
# Method: FIG. 3 is a line graph illustrating decreased mortality in P13-treated mice after high dose LPS. BALB/c mice were injected i.p. with LPS (70 mg/kg) and 2 and 6 hrs later treated s.c. with P13 or control peptide (75 μg/mouse/injection). The mice (10 animals/group) were monitored every 3-4 hours for lethality, and the experiment was terminated after 96 hrs.
# LPS-induced sepsis. Female BALB/c mice were injected i.p. with 70 mg/kg of LPS. At 2 and 6 hours after injection of LPS, mice were treated with scrambled control peptide or peptide P13. The peptides were administered subcutaneously at 75 μg/animal/injection time, with 10 mice/treatment group. The mice were monitored every 3-4 hours and the experiment was terminated after 96 hours.
# As P13 inhibited production of inflammatory mediators in vivo, an LPS-induced murine sepsis model was used to determine the effect of peptide P13 on survival. Mice were injected with lethal dose of LPS (70 mg/kg) and treated 2 and 6 hours later with scrambled control peptide (75 μg) or a matching concentration of peptide P13. […] The experiment was terminated at 96 hours and P13 treated mice remained at 40% survival (FIG. 3). These studies confirm the in vivo activity of peptide P13 to reduce lethality in an LPS sepsis model even when peptide treatment is initiated after administration of LPS.
Substance,production of inflammatory mediators [1],inhibition of IL-6 production [2],inhibition of MIP-2 production [2],inhibition of TLR-dependent signaling [3],inhibition of serum TNF-α ([4]; 50 μg i.p. 30 min after 5 mg/kg LPS i.p.),inhibition of serum TNF-α ([4]; 75 μg i.p. 30 min after 5 mg/kg LPS i.p.),survival [5],lethality at 36 hours [6],lethality at 74 hours [6],survival at 96 hours [6]
"DIVKLTVYDCI-RRRRRRRRR (listed as Vaccinia virus) [P13, A52R amino acids 125 to 135 linked to nine arginines]",reduced the production of inflammatory mediators,> 90%,> 90%,capable of in vitro inhibition,did not reduce,significant inhibition,enhance survival,60%,60%,40%
"ITCVDVDLIYK-RRRRRRRRR (ITCVDVDLIYKRRRRRRRRR; listed as Vaccinia virus) [scrambled control peptide, scrambled control of P13 with nine arginines, reference compound]",,only modest inhibition,only modest inhibition,,,,,90%,100%,
